# Measured values as given in PubChem BioAssay (NCI).
#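 Test compounds were applied to cells in 96-well plates for 48 hours at 5 doses. GI50 = concentration required for 50% inhibition of growth. TGI: concentration producing complete growth inhibition.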
# Legend:
# Experiment in all cases: growth of human tumour cells (NCI), 48 h
# SF-295 CNS = tested on: SF-295 CNS
# NCI/ADR-RES ovarian = tested on: NCI/ADR-RES ovarian
# SF-268 CNS = tested on: SF-268 CNS
# M14 melanoma = tested on: M14 melanoma
# HCT-15 colon = tested on: HCT-15 colon
# NCI-H226 lung = tested on: NCI-H226 lung
# A498 renal = tested on: A498 renal
# SW-620 colon = tested on: SW-620 colon
# HCT-116 colon = tested on: HCT-116 colon
# SK-OV-3 ovarian = tested on: SK-OV-3 ovarian
SMILES,GI50 (SF-295 CNS),TGI (SF-295 CNS),GI50 (NCI/ADR-RES ovarian),TGI (NCI/ADR-RES ovarian),GI50 (SF-268 CNS),TGI (SF-268 CNS),GI50 (M14 melanoma),TGI (M14 melanoma),GI50 (HCT-15 colon),TGI (HCT-15 colon),GI50 (NCI-H226 lung),TGI (NCI-H226 lung),GI50 (A498 renal),TGI (A498 renal),GI50 (SW-620 colon),TGI (SW-620 colon),GI50 (HCT-116 colon),TGI (HCT-116 colon),GI50 (SK-OV-3 ovarian),TGI (SK-OV-3 ovarian)
C[C@@]12CCC[C@@](C)(C(=O)O)C1CC[C@@]13CC(=O)[C@@](CO)(CCC12)C3 (stereo not given in full),> 100 µM,> 100 µM,> 100 µM,> 100 µM,> 100 µM,> 100 µM,> 100 µM,> 100 µM,> 100 µM,> 100 µM,> 100 µM,> 100 µM,> 100 µM,> 100 µM,> 100 µM,> 100 µM,> 100 µM,> 100 µM,> 100 µM,> 100 µM
COC(=O)[C@]12CC[C@@H](C)[C@H](C)[C@@H]1C1=CC[C@@H]3[C@@]4(C)C=C(O)C(=O)C(C)=C4CC[C@@]3(C)[C@]1(C)CC2,15.8 µM,37.9 µM,12.7 µM,31.7 µM,15.2 µM,35.1 µM,11 µM,29 µM,11.9 µM,27.6 µM,12.3 µM,41 µM,19.5 µM,34.1 µM,17.3 µM,35.7 µM,6.03 µM,20.6 µM,15.6 µM,38.4 µM
N#CC(=S)Nc1ccc(F)cc1,,> 100 µM,,> 100 µM,,> 100 µM,,> 100 µM,,> 100 µM,,> 100 µM,,90.5 µM,,> 100 µM,,> 100 µM,,> 100 µM
O=C(Nc1ccccc1F)c1ccc(NC2=C(Cl)C(=O)N(Cc3ccccc3)C2=O)cc1,10.7 µM,22.6 µM,11.5 µM,23.6 µM,2 µM,5.2 µM,4.02 µM,17 µM,3.38 µM,12.3 µM,11.2 µM,25.2 µM,16.6 µM,30.2 µM,3.29 µM,9.93 µM,8.4 µM,20.6 µM,17.6 µM,31.4 µM
C=C1CO[C@@H]2C[C@@H]1CCC1(C)OC1CC/C(C)=C/CC[C@@]2(C)O (stereo not given in full),18.4 µM,44.7 µM,32.3 µM,> 67.4 µM,48.6 µM,> 100 µM,44.1 µM,> 100 µM,35.8 µM,> 87 µM,> 100 µM,> 100 µM,> 79.1 µM,> 100 µM,15.8 µM,38.4 µM,15.7 µM,31.2 µM,> 100 µM,> 100 µM
O=C(CC(=O)c1ccccc1NC1=Cc2ccccc2C(=O)C1=O)C(=O)NC1=C(Cl)C(=O)c2ccccc2C1=O,,11.7 µM,,7 µM,,11.8 µM,,4.12 µM,,6.03 µM,,20.1 µM,,30.3 µM,,7.98 µM,,6.37 µM,,> 83.8 µM
O=C1C=C(Nc2nc(C(=O)O)cc(=O)[nH]2)c2ccccc2C1=O,,> 100 µM,,> 100 µM,,> 100 µM,,> 100 µM,,> 100 µM,,> 100 µM,,> 100 µM,,> 100 µM,,> 100 µM,,> 100 µM
CC1(C)CC[C@]2(C(=O)O)CC[C@]3(C)[C@H](CC[C@@H]4[C@@]5(C)CCC(=O)C(C)(C)[C@@H]5CC[C@]43C)[C@H]2[C@H]1OC(=O)C(F)(F)F,14.6 µM,30.1 µM,12.3 µM,26.2 µM,15.3 µM,33.6 µM,8.34 µM,27 µM,4.99 µM,18.1 µM,13.5 µM,34 µM,15.7 µM,30.9 µM,11.6 µM,28.1 µM,4.8 µM,17.8 µM,13.4 µM,54 µM
CCOC(=O)c1cnc2c(cnn2CC)c1NN=C(C)C,27.6 µM,> 100 µM,38 µM,> 100 µM,38.9 µM,> 100 µM,> 100 µM,> 100 µM,32 µM,> 100 µM,57.4 µM,> 100 µM,28.1 µM,> 100 µM,83.8 µM,> 100 µM,47.1 µM,> 100 µM,55.7 µM,> 100 µM
CC12CCC(O)CC1CCC1C2CCC2(C)C(C3=CC(=O)OC3)CCC12 (stereo not given),10.7 µM,27.4 µM,27 µM,> 100 µM,5.17 µM,> 41.8 µM,> 100 µM,> 100 µM,> 100 µM,> 100 µM,> 33.6 µM,> 100 µM,1.5 µM,10.4 µM,> 100 µM,> 100 µM,25.5 µM,> 100 µM,21.8 µM,> 61.5 µM
Cc1nc2ccc(NCCN(C)C)c3c(=O)c4cc(O)ccc4n1c23,,5.87 µM,,7.29 µM,,5.43 µM,,15.9 µM,,2.8 µM,,1.7 µM,,4.93 µM,,4.53 µM,,2.22 µM,,8.98 µM
Oc1ccc(SCc2ccc(NCc3ccccc3)cc2)cc1,,> 100 µM,,> 100 µM,,> 100 µM,,44.5 µM,,> 100 µM,,> 100 µM,,88 µM,,> 100 µM,,> 100 µM,,> 100 µM
COc1ccc(-c2nn(-c3cccc(NC(=O)Nc4cccc(C(F)(F)F)c4)c3)cc2-c2ccncc2)cc1Cl,1.69 µM,7.32 µM,2.29 µM,> 100 µM,3.22 µM,> 100 µM,1.63 µM,4.62 µM,1.81 µM,> 100 µM,2.14 µM,9.43 µM,1.61 µM,5.81 µM,3.37 µM,> 100 µM,1.31 µM,9.04 µM,3.58 µM,> 100 µM
COC(=O)c1cc2c(cc1Cl)SC(N(N(C)C)S(=O)(=O)c1ccc(Cl)cc1)=NS2(=O)=O,18 µM,51.2 µM,15.2 µM,39.9 µM,20.1 µM,45.5 µM,15.8 µM,32 µM,14.1 µM,27.1 µM,19.8 µM,62 µM,15.1 µM,30.1 µM,14.3 µM,27.4 µM,15.6 µM,29 µM,17.9 µM,49.2 µM
CN1CCN(c2cc(Nc3cc(C4CC4)[nH]n3)nc(Nc3ccc(CC(=O)NCc4cccc(F)c4)cc3)n2)CC1,1.99 µM,10.3 µM,18.8 µM,> 100 µM,1.23 µM,12.3 µM,0.752 µM,2.41 µM,2.9 µM,14.5 µM,0.534 µM,10.9 µM,0.143 µM,0.967 µM,0.12 µM,2.72 µM,0.211 µM,6.87 µM,0.932 µM,12.9 µM
C=C1C(=O)O[C@H]2[C@H]1CC(=O)/C(C)=C\CC[C@@]1(C)O[C@@H]21,5.55 µg/mL,12.4 µg/mL,1.1 µg/mL,4.45 µg/mL,4.15 µg/mL,9.58 µg/mL,3.38 µg/mL,11.8 µg/mL,0.83 µg/mL,3.68 µg/mL,4.71 µg/mL,9.45 µg/mL,5.55 µg/mL,11.3 µg/mL,1.06 µg/mL,6.15 µg/mL,1.26 µg/mL,4.97 µg/mL,7.86 µg/mL,17.4 µg/mL
NCC(=O)CCC(=O)O,> 100 µM,> 100 µM,> 100 µM,> 100 µM,> 100 µM,> 100 µM,> 100 µM,> 100 µM,> 100 µM,> 100 µM,> 100 µM,> 100 µM,> 100 µM,> 100 µM,> 100 µM,> 100 µM,> 100 µM,> 100 µM,> 100 µM,> 100 µM
CCCCc1nc2cc(/C=C/C(=O)NO)ccc2n1CCN(CC)CC,0.26 µM,1.23 µM,0.239 µM,4.03 µM,0.552 µM,7.55 µM,0.358 µM,5.32 µM,1.47 µM,22.4 µM,0.608 µM,3.45 µM,0.194 µM,0.658 µM,0.228 µM,3.32 µM,0.115 µM,0.571 µM,0.241 µM,0.88 µM
O=C1C(=O)c2c(nc3ncccn23)-c2ccccc21,0.173 µM,0.316 µM,0.301 µM,0.962 µM,0.339 µM,1.13 µM,0.182 µM,0.343 µM,0.166 µM,0.358 µM,0.493 µM,1.25 µM,0.484 µM,1.28 µM,0.214 µM,0.461 µM,0.184 µM,0.379 µM,1.08 µM,2.52 µM
Cc1[nH]nc(C(=O)Nc2n[nH]c3ccccc23)c1[N+](=O)[O-],> 100 µM,> 100 µM,> 100 µM,> 100 µM,> 100 µM,> 100 µM,> 96.2 µM,> 100 µM,33.4 µM,> 100 µM,> 100 µM,> 100 µM,> 76.6 µM,> 100 µM,> 100 µM,> 100 µM,> 100 µM,> 100 µM,> 100 µM,> 100 µM
